Measurements from PubChem BioAssay (NCI).
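Interpolation was linear, between the two tested concentrations surrounding the appropriate level; five concentrations were tested over 48 hours in 96-well plates. GI50: concentration for 50% inhibition of growth. TGI marks complete inhibition of growth.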

What was measured:
Assay in all cases: inhibition of tumour cell growth, NCI panel, 48 h
MDA-MB-231 breast = test system: MDA-MB-231 breast
SK-MEL-2 melanoma = test system: SK-MEL-2 melanoma
UO-31 renal = test system: UO-31 renal
SF-268 CNS = test system: SF-268 CNS
EKVX NSCLC = test system: EKVX NSCLC
HCT-116 colon = test system: HCT-116 colon
DU-145 prostate = test system: DU-145 prostate
KM12 colon = test system: KM12 colon
HOP-62 NSCLC = test system: HOP-62 NSCLC
SK-MEL-28 melanoma = test system: SK-MEL-28 melanoma
NCI-H226 lung = test system: NCI-H226 lung
IGROV1 ovarian = test system: IGROV1 ovarian
OVCAR-4 ovarian = test system: OVCAR-4 ovarian
A498 renal = test system: A498 renal
TK-10 renal = test system: TK-10 renal
HOP-92 NSCLC = test system: HOP-92 NSCLC
K-562 leukemia = test system: K-562 leukemia
MCF7 breast = test system: MCF7 breast
SN12C renal = test system: SN12C renal
SW-620 colon = test system: SW-620 colon
HT29 colon = test system: HT29 colon
SF-295 CNS = test system: SF-295 CNS
MDA-N = test system: MDA-N
SF-539 CNS = test system: SF-539 CNS
CAKI-1 renal = test system: CAKI-1 renal
U251 CNS = test system: U251 CNS
OVCAR-3 ovarian = test system: OVCAR-3 ovarian
HCT-15 colon = test system: HCT-15 colon
BT-549 breast = test system: BT-549 breast
NCI/ADR-RES ovarian = test system: NCI/ADR-RES ovarian
RXF 393 renal = test system: RXF 393 renal
LOX IMVI melanoma = test system: LOX IMVI melanoma
A549 NSCLC = test system: A549 NSCLC
PC-3 prostate = test system: PC-3 prostate
SNB-75 CNS = test system: SNB-75 CNS
ACHN renal = test system: ACHN renal
UACC-257 melanoma = test system: UACC-257 melanoma
NCI-H460 lung = test system: NCI-H460 lung
MOLT-4 leukemia = test system: MOLT-4 leukemia
NCI-H23 lung = test system: NCI-H23 lung
HL-60(TB) leukemia = test system: HL-60(TB) leukemia
786-0 renal = test system: 786-0 renal
HS 578T breast = test system: HS 578T breast
SNB-19 CNS = test system: SNB-19 CNS
OVCAR-8 ovarian = test system: OVCAR-8 ovarian
NCI-H522 lung = test system: NCI-H522 lung
HCC-2998 colon = test system: HCC-2998 colon
RPMI-8226 leukemia = test system: RPMI-8226 leukemia
M14 melanoma = test system: M14 melanoma
OVCAR-5 ovarian = test system: OVCAR-5 ovarian
T-47D breast = test system: T-47D breast
SK-MEL-5 melanoma = test system: SK-MEL-5 melanoma
MDA-MB-435 = test system: MDA-MB-435
SR leukemia = test system: SR leukemia

## COc1ccc2[nH]c3c(O)c(-c4c(C)cc5c([nH]c6ccc(OC)cc65)c4O)c(C)cc3c2c1
MDA-MB-231 breast
  TGI: 10.8 µM
SK-MEL-2 melanoma
  TGI: 10.7 µM
UO-31 renal
  GI50: 3.78 µM
  TGI: 7.12 µM
SF-268 CNS
  TGI: 8.06 µM
EKVX NSCLC
  TGI: 7.8 µM
HCT-116 colon
  TGI: 7.63 µM
DU-145 prostate
  TGI: 7.97 µM
KM12 colon
  TGI: 7.74 µM
HOP-62 NSCLC
  TGI: 8.35 µM
SK-MEL-28 melanoma
  TGI: 9.64 µM
NCI-H226 lung
  TGI: 9.06 µM
IGROV1 ovarian
  TGI: 8.04 µM
OVCAR-4 ovarian
  TGI: 7.22 µM
A498 renal
  GI50: 4.78 µM
  TGI: 8.35 µM
TK-10 renal
  TGI: 8.19 µM
HOP-92 NSCLC
  TGI: 8.18 µM
K-562 leukemia
  GI50: 4.04 µM
  TGI: 8.13 µM
MCF7 breast
  GI50: 4.49 µM
  TGI: 8.43 µM
SN12C renal
  TGI: 8.17 µM
SW-620 colon
  TGI: 10.3 µM
HT29 colon
  GI50: 3.71 µM
  TGI: 7.6 µM
SF-295 CNS
  GI50: 5.11 µM
  TGI: 8.86 µM
MDA-N
  GI50: 4.5 µM
  TGI: 8.22 µM
SF-539 CNS
  TGI: 8.81 µM
CAKI-1 renal
  GI50: 4.27 µM
  TGI: 8.39 µM
U251 CNS
  TGI: 7.98 µM
OVCAR-3 ovarian
  TGI: 7.79 µM
HCT-15 colon
  GI50: 4.2 µM
  TGI: 8.2 µM
BT-549 breast
  TGI: 8.2 µM
NCI/ADR-RES ovarian
  TGI: 8.13 µM
RXF 393 renal
  TGI: 8.82 µM
LOX IMVI melanoma
  TGI: 8.06 µM
A549 NSCLC
  TGI: 7.97 µM
PC-3 prostate
  TGI: 7.69 µM
SNB-75 CNS
  TGI: 7.18 µM
ACHN renal
  TGI: 8.15 µM
UACC-257 melanoma
  TGI: 8.32 µM
NCI-H460 lung
  TGI: 7.52 µM
MOLT-4 leukemia
  GI50: 3.23 µM
  TGI: 7.52 µM
NCI-H23 lung
  GI50: 4.48 µM
  TGI: 8.38 µM
HL-60(TB) leukemia
  GI50: 0.0321 µM
  TGI: 4.96 µM
786-0 renal
  TGI: 8.62 µM
HS 578T breast
  TGI: 11.5 µM
SNB-19 CNS
  TGI: 8.72 µM
OVCAR-8 ovarian
  TGI: 8.39 µM
NCI-H522 lung
  TGI: 9.2 µM
HCC-2998 colon
  TGI: 6.99 µM
RPMI-8226 leukemia
  GI50: 3.61 µM
  TGI: 7.45 µM
M14 melanoma
  TGI: 7.99 µM
OVCAR-5 ovarian
  GI50: 3.82 µM
  TGI: 7.34 µM
T-47D breast
  TGI: 13.8 µM
SK-MEL-5 melanoma
  GI50: 4.34 µM
  TGI: 8.18 µM
MDA-MB-435
  GI50: 4.34 µM
  TGI: 8 µM
SR leukemia
  GI50: 3.97 µM
  TGI: 8.34 µM
